These results are taken from ChEMBL document CHEMBL1126527, “Insight into the catalytic mechanism of KDO8P synthase. Synthesis and evaluation of the isosteric phosphonate mimic of the putative cyclic intermediate” (Bioorg Med Chem Lett, 1993).

This experiment in a line: Inhibition of homogeneous KDO 8-P synthase of Escherichia coli was determined from Dixon Plot.

As to `O=C(O)C1(OP(=O)(O)O)CC(O)C(O)C([C@H](O)COP(=O)(O)O)O1` (stereo partly specified), affinity was put at a Ki of 4.9 µM.

By Ki is commonly meant the equilibrium dissociation constant of an inhibitor or competing ligand from its target. A higher Ki goes with weaker binding.
